Patent publication US5087634A, “N-substituted imidazol-2-one compounds for treatment of circulatory disorders” (G. D. Searle & Co., priority 1990, dated 1992)
Several values for one entry are separate records, joined by “and”; a condition that tells them apart may be missing. Equal entries are not always repeated. Values belong to the molecule of their own block, whether it stands above or below them.

Key:
[1] = test system: angiotensin II receptors; conditions: cited from earlier work
[2] = test system: angiotensin II; conditions: binding experiments, functional assays and in vivo tests; cited from earlier work
[3] = target: T1, rabbit aortic rings (Oryctolagus cuniculus, UniProt P34976); test: In Vitro Vascular Smooth Muscle-Response for AII (rabbit aortic rings); set-up: species or system rabbit (male New Zealand white); conditions: antagonist 10^-5 M for 5 minutes before AII; rabbit aorta rings, 37° C.; read-out: pA2 value (converted)
T1 construct: The thoracic aorta was removed, cleaned of adherent fat and connective tissue and then cut into 3-mm ring segments; from tissue; host or cells: thoracic aorta rings of male New Zealand white rabbits, endothelium removed
T1 sequence (P34976 1-359): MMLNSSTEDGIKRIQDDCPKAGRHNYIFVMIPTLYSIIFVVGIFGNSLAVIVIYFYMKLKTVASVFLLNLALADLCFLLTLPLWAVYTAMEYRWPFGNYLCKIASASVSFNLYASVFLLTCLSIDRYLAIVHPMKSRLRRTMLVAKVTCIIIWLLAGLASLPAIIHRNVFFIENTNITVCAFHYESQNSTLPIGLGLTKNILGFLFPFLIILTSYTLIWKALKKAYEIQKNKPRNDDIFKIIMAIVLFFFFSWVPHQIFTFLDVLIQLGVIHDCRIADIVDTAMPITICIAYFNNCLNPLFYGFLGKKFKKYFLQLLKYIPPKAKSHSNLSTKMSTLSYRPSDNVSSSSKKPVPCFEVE
Protocol: The compounds of the invention were tested for antagonist activity in rabbit aortic rings. Male New Zealand white rabbits (2-2.5 kg) were sacrificed using an overdose of pentobarbital and exsanguinated via the carotid arteries. The thoracic aorta was removed, cleaned of adherent fat and connective tissue and then cut into 3-mm ring segments. The endothelium was removed from the rings by gently sliding a rolled-up piece of filter paper into the vessel lumen. The rings were then mounted in a water-jacketed tissue bath, maintained at 37° C., between moveable and fixed ends of a stainless steel wire with the moveable end attached to an FT03 Grass transducer coupled to a Model 7D Grass Polygraph for recording isometric force responses. The bath was filled with 20 ml of oxygenated (95% oxygen/5% carbon dioxide) Krebs solution of the following composition (mM): 130 NaCl, 15 NaHCO3, 15 KCl, 1.2 NaH2 P04, 1.2 MgSO4, 2.5 CaCl2, and 11.4 glucose. The preparations were equilibrated for one hour before approximately one gram of passive tension was placed on the rings. Angiotensin II concentration-response curves were then recorded (3×10^-10 to 1×10^-5 M). […] The effectiveness of the test compound was expressed in terms of pA2 values and were calculated according to H. O. Schild [Br. J. Pharmacol. Chemother., 2, 189-206 (1947)]. […] Each test antagonist was evaluated in aorta rings from two, rabbits.

[4] = target: smooth muscle angiotensin II receptor; test: Angiotensin II Binding Activity (displacement of 125I-AII from rat uterine membranes); conditions: 25° C., 60 min, read-out: IC50 (50% displacement of the total specifically bound 125I-AII)
Protocol: Compounds of the invention were tested for ability to bind to the smooth muscle angiotensin II receptor using a rat uterine membrane preparation. Angiotensin II (AII) was purchased from Peninsula Labs. 125I-angiotensin II (specific activity of 2200 Ci/mmol) was purchased from Du Pont-New England Nuclear. Other chemicals were obtained from Sigma Chemical Co. This assay was carried out according to the method of Douglas et al [Endocrinoloby, 106, 120-124 (1980)]. Rat uterine membranes were prepared from fresh tissue. All procedures were carried out at 4° C. Uteri were stripped of fat and homogenized in phosphate-buffered saline at pH 7.4 containing 5 mM EDTA. The homogenate was centrifuged at 1500× g for 20 min., and the supernatant was recentrifuged at 100,000× g for 60 min. The pellet was resuspended in buffer consisting of 2 mM EDTA and 50 mM Tris-HCl (pH 7.5) to a final protein concentration of 4 mg/ml. Assay tubes were charged with 0.25 ml of a solution containing 5 mM MgCl2, 2 mM EDTA, 0.5% bovine serum albumin, 50 mM Tris-HCl, pH 7.5 and ^125 I-AJI (approximately 10^5 cpm) in the absence or in the presence of unlabelled ligand. […] Filters were assayed for radioactivity in a Micromedic gamma counter. […] Specific binding was calculated as total binding minus nonspecific binding. […] Binding data were analyzed by a nonlinear least-squares curve fitting program.

[5] = test system: angiotensin II pressor response; test: In Vivo Intragastric Pressor Assay Response for AII Antagonists; set-up: species or system rat (male Sprague-Dawley); conditions: dose 10 (units not given), gavage, listed as EX. #1
Protocol: Male Sprague-Dawley rats weighing 225-300 grams were anesthetized with methohexital (30 mg/kg, i.p.) and catheters were implanted into the femoral artery and vein. The catheters were tunneled subcutaneously to exit dorsally, posterior to the head and between the scapulae. The catheters were filled with heparin (1000 units/ml of saline). The rats were returned to their cage and allowed regular rat chow and water ad libitum. After full recovery from surgery (3-4 days), rats were placed in Lucite holders and the arterial line was connected to a pressure transducer. Arterial pressure was recorded on a Gould polygraph (mmHg). […] After allowing one hour for pressure to stabilize, the test compound (suspended in 0.5% methylcellulose in water) was administered by gavage. The volume administered was 2 ml/kg body weight. Arterial pressure was monitored for 5 hours post-dosing. The angiotensin II infusion was then discontinued and pressure was allowed to reach a stable recovery level. Percent inhibition (%I) of the angiotensin II pressor response was calculated from the difference in pressure at a given timepoint post-dosing with the test compound and the antiotensin II-infused pressure, divided by the difference in pressure with and without the angiotensin II infusion; this value was multiplied by 100. Duration of action of a test compound was defined as the time taken for pressure to return to angiotensin II-infused baseline levels after compound administration. One compound at one dose was tested in each rat. The compound of Example I was tested in two rats.

Structure (SMILES): CNCC(=O)N[C@@H](CCCN=C(N)N)C(=O)N[C@H](C(=O)N[C@@H](Cc1ccc(O)cc1)C(=O)N[C@H](C(=O)N[C@@H](Cc1cnc[nH]1)C(=O)N1CCC[C@H]1C(=O)N[C@@H](C)C(=O)O)C(C)C)C(C)C [Saralasin]
residual agonist activity [1]: significant residual agonist activity

Structure (SMILES): CCCCc1nc(Cl)c(CC(=O)O)n1Cc1ccccc1[N+](=O)[O-] [2-butyl-4-choloro-l-(2-nitrobenzyl)imidazole-5-acetic acid]
angiotensin II antagonist activity [2]: specific competitive angiotensin II antagonist activity

Structure (SMILES): CCCCc1nc(Cl)c(CC(=O)O)n1Cc1ccccc1Cl [2-n-butyl-4-chloro-l-(2-chlorobenzyl)imidazole-5-acetic acid]
angiotensin II antagonist activity [2]: specific competitive angiotensin II antagonist activity

Kb [3]: 2.51 nM | IC50 [4]: 6.4 nM
Structure (SMILES): CCCCc1cn(CCCC)c(=O)n1Cc1ccc(-c2ccccc2-c2nnn[nH]2)cc1 [Example 1, 1,4-dibutyl-1,3-dihydro-3-[2'-(1H-tetrazol-5-yl)[1,1'biphenyl]-4-ylmethyl]-2H-imidazol-2-one]
mean arterial pressure after administration, time 10 ([5]; time 10, AII infusion 50 ng/kg/min, two rats (baseline/after AII 116/168 and 126/175 mmHg)): 165 mmHg and 166 mmHg | mean arterial pressure after administration, time 20 ([5]; time 20, AII-infused rats): 163 mmHg and 155 mmHg | mean arterial pressure after administration, time 30 ([5]; time 30, AII-infused rats): 159 mmHg and 147 mmHg | % inhibition (% I) of the AII pressor response, time 40 ([5]; time 40, AII-infused rats): 41% and 58% | mean arterial pressure after administration, time 40 ([5]; time 40, AII-infused rats): 146 mmHg and 147 mmHg | % inhibition (% I) of the AII pressor response, time 50 ([5]; time 50, AII-infused rats): 45% and 89% | mean arterial pressure after administration, time 50 ([5]; time 50, AII-infused rats): 144 mmHg and 132 mmHg | % inhibition (% I) of the AII pressor response, time 60 ([5]; time 60, AII-infused rats): 54% and 88% | mean arterial pressure after administration, time 60 ([5]; time 60, AII-infused rats): 140 mmHg and 132 mmHg | % inhibition (% I) of the AII pressor response, time 90 ([5]; time 90, AII-infused rats): 86% and 96% | mean arterial pressure after administration, time 90 ([5]; time 90, AII-infused rats): 123 mmHg and 128 mmHg | % inhibition (% I) of the AII pressor response, time 120 ([5]; time 120, AII-infused rats): 85% and 103% | mean arterial pressure after administration, time 120 ([5]; time 120, AII-infused rats): 124 mmHg and 125 mmHg | % inhibition (% I) of the AII pressor response, time 150 ([5]; time 150, AII-infused rats): 93% and 97% | mean arterial pressure after administration, time 150 ([5]; time 150, AII-infused rats): 119 mmHg and 128 mmHg | % inhibition (% I) of the AII pressor response, time 180 ([5]; time 180, AII-infused rats): 96% and 97% | mean arterial pressure after administration, time 180 ([5]; time 180, AII-infused rats): 117 mmHg and 127 mmHg | % inhibition (% I) of the AII pressor response, time 210 ([5]; time 210, AII-infused rats): 106% and 98% | mean arterial pressure after administration, time 210 ([5]; time 210, AII-infused rats): 113 mmHg and 127 mmHg | % inhibition (% I) of the AII pressor response, time 240 ([5]; time 240, AII-infused rats): 102% and 89% | mean arterial pressure after administration, time 240 ([5]; time 240, AII-infused rats): 115 mmHg and 131 mmHg | % inhibition (% I) of the AII pressor response, time 270 ([5]; time 270, AII-infused rats): 96% and 92% | mean arterial pressure after administration, time 270 ([5]; time 270, AII-infused rats): 117 mmHg and 130 mmHg | % inhibition (% I) of the AII pressor response, time 300 ([5]; time 300, AII-infused rats): 97% and 87% | mean arterial pressure after administration, time 300 ([5]; time 300, AII-infused rats): 117 mmHg and 133 mmHg
